The values below come from US8673913B2, “SHP-2 phosphatase inhibitor” (Case Western Reserve University, priority 2009, dated 2014).

Assay [1] concerns the target T1, GST-PTP-MEG2 PTP domain (PTPN9) (Homo sapiens, UniProt P43378).
T1 construct: GST-PTP-MEG2 PTP domain; purchased Biomol International, L.P. (Plymouth Meeting, Pa.)
T1 sequence (P43378 303-574 limits assumed): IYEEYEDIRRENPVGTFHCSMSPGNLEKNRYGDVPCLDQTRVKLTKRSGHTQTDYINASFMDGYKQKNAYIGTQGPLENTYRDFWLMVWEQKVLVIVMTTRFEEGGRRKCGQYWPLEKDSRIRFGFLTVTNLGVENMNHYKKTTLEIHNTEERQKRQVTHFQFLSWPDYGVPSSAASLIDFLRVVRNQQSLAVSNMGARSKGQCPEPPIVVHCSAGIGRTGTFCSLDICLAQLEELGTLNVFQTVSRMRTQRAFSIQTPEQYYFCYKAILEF
The experiment in a line: in vitro phosphatase assay, PTP-MEG2. It counts as biochemical. On the procedure: Candidate compounds were screened using the in vitro protein tyrosine phosphatase (PTP) assay kit (Sigma, St. Lois, Mo.). […] The assay determines free phosphate generated by dephosphorylation of the PTP substrate using the Malachite Green reagent. Briefly, 0.5 μg of GST-SHP-2 PTP was incubated in 40 μL assay buffer (25 mM Tris-HCl, PH7.4, 50 mM NaCl, 5 mM DTT, and 2.5 mM EDTA) with test compounds at various concentrations or DMSO at room temperature for 30 min. The PTP substrate was then added to a final concentration of 0.2 mM. The system was incubated at 30° C. for 30 min. Finally, 50 μl of Malachite Green solution was added and OD620 was measured after 5 min. In the phosphatase assays for SHP-1, CD45, TC-PTP, PTP-MEG2 (PTPN9), and LAR (PTPRF), procedures were similar, with the exception that GST-SHP-1, GST-CD45 cytoplasmic domain, GST-TC-PTP, GST-PTP-MEG2 PTP domain, and GST-LAR PTP domain purchased from Biomol International, L.P. (Plymouth Meeting, Pa.) were used instead as the enzymes.

Assay [2] has as its system SHP-2 (WT and D61G) in mouse embryonic fibroblasts. Nature of the assay: in vivo (immunocomplex) phosphatase assay: EGF-induced activation of SHP-2 in embryonic fibroblasts. It counts as cell-based. The following applies: 100 μM, last 1 hour; WT and SHP-2D61G/D61G cells. Here is the method: (§1) FIG. 5 illustrates in vivo effects of active compounds on SHP-2 activity and SHP-2-mediated signaling. (A) WT and mutant embryonic fibroblasts derived from activating mutation SHP-2 D61G knock-in mice were starved in serum-free medium overnight and were treated with the indicated compounds in the last 1 hour. Cells were then stimulated with EGF (20 ng/mL) for 10 min. Whole cell lysates were prepared and immunoprecipitated with anti-SHP-2 antibody. Immunoprecipitates were washed and then subjected to the in vitro phosphatase assay as described in the text. (B) Ba/F3 cells were deprived of IL-3 for 8 hours. The cells were treated with the indicated compounds 1 hour prior to the stimulation with IL-3 (2 ng/mL). Cells were harvested after the indicated periods of time. Whole cell lysates were prepared and examined for Erk activation with anti-phospho-Erk immunoblotting. The blot was striped and reprobed with anti-pan Erk antibody to examine protein loading.
For the in vivo phosphatase assay, mouse embryonic fibroblasts were used to assess the activities of the test compounds in inhibiting epidermal growth factor (EGF)-induced activation of SHP-2 catalytic activity. WT and mutant fibroblasts derived from activating mutation of SHP-2 D61G knock-in mice (SHP-2D61G/D61G)10 were starved in serum-free medium overnight and the tested compounds (100 μM) were added in the last 1 hour. […]

The target of assay [3] is T2, SHP-2 PTP domain GST fusion protein (Homo sapiens, UniProt Q06124).
T2 sequence (Q06124 247-517 limits assumed): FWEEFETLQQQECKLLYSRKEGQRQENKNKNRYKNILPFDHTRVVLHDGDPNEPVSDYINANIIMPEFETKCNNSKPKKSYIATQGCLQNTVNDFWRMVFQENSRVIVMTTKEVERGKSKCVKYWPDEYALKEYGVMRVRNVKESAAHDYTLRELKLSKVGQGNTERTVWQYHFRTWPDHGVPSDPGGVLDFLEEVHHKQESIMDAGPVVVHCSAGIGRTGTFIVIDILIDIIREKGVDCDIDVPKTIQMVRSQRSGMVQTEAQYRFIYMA
Nature of the assay: fluorescence titration (quenching of SHP-2 fluorescence). Type of assay: binding. Set-up: Purified SHP-2 PTP domain GST-fusion protein was diluted into 20 mM Tris-HCl; made in house. The conditions noted are these: SHP-2 protein 3 μM, excitation 295 nm. Here is the method:
For all experiments, Purified SHP-2 PTP domain GST-fusion protein was diluted into 20 mM Tris-HCl, pH 7.5. Fluorescence spectra were recorded with a Luminescence Spectrometer LS50 (Perkin-Elmer, Boston, Mass.). Titrations were performed by increasing the test compound concentration while maintaining the SHP-2 protein concentration at 3 μM. Contributions from background fluorescence of the inhibitors were accounted for by subtracting the fluorescence of the inhibitors alone from the of the protein-inhibitor solution. The excitation wavelength was 295 nm and fluorescence was monitored from 360 to 500 nm. All reported fluorescence intensities are relative values and are not corrected for wavelength variations in detector response.
To validate that the active compounds identified were binding directly to the SHP-2 protein, we determined whether the active compounds directly interacted with the SHP-2 PTP domain using fluorescence quenching and taking advantage of the four tryptophans in the PTP domain, with Trp248 located 15 Å from the putative pY+5 pocket and Trp423 located 8 Å from the phosphatase active site. […] Therefore, their binding to SHP-2 protein could not be determined using this measurement. Thus, the fluorescence quenching experiments indicate that at least four active compounds identified do directly bind to SHP-2, thereby leading to their biological activities.

The subject of assay [4] is Erk activation in Ba/F3 cells. Nature of the assay: IL-3-induced Erk activation, anti-phospho-Erk immunoblotting. It counts as cell-based, murine. The following applies: Ba/F3 cells preincubated 1 hour. On the procedure: as §1
We next tested whether the active compounds are effective in cells. […] Activation of SHP-2 in response to EGF stimulation was determined using the immunocomplex phosphatase assay. Compared to WT SHP-2, catalytic activity of SHP-2 D61G mutant in the mutant cells was increased both at the basal level and following EGF stimulation (FIG. 5A), consistent with previous studies. […]

Regarding `Cc1cc(C)c2[nH]c3nc(SCC(=O)Nc4cccc5ccccc45)nnc3c2c1` [#324], the IC50 in assay [1] amounted to 177 µM.

Consider `Cc1cc(C)c2c(c1)[nH]c1nnc(SCC(=O)NCc3cccs3)nc12` [#220], for which the “EGF-induced activation of SHP-2” value in assay [2] is “blocked”. Further, in assay [3], the “quenching of SHP-2 fluorescence” value was “strong quenching”. Also, in assay [4], the “Erk activation by IL-3” value is on record as “suppressed”.

Consider `NS(=O)(=O)c1ccc(CCNC(=O)c2ccc(Cn3c(=S)[nH]c4ccc(Br)cc4c3=O)cc2)cc1` [#216], for which the “EGF-induced activation of SHP-2” value in assay [2] is reported as “blocked”. The “quenching of SHP-2 fluorescence” value in assay [3] is “strong quenching”. Further, the “Erk activation by IL-3” value in assay [4] is recorded as “suppressed”.
